Reference: ChEMBL document CHEMBL1201862, “PubChem BioAssay data set” (2004)
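Test compounds were applied to cells in 96-well plates for 48 hours at 5 doses. GI50 = concentration required for 50% inhibition of growth.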 The source made the active and inactive calls. Rule as the data show it: active = GI50 up to about 1.1 µM and inactive = higher.

How the values were obtained:
Assay in all cases: DTP human tumour cell line panel, 48 h
RPMI-8226 = test system: RPMI-8226
TK-10 = test system: TK-10
OVCAR-4 = test system: OVCAR-4
IGROV-1 = test system: IGROV-1
LOX IMVI = test system: LOX IMVI
NCI-H226 = test system: NCI-H226
ACHN = test system: ACHN
SK-MEL-5 = test system: SK-MEL-5
COLO 205 = test system: COLO 205
NCI-H460 = test system: NCI-H460
HOP-62 = test system: HOP-62
RXF 393 = test system: RXF 393
A549 = test system: A549
Malme-3M = test system: Malme-3M
UACC-257 = test system: UACC-257
HL-60 = test system: HL-60
NCI-H522 = test system: NCI-H522
SNB-19 = test system: SNB-19
CCRF-CEM = test system: CCRF-CEM

Row | SMILES | GI50 (RPMI-8226) | GI50 (TK-10) | GI50 (OVCAR-4) | GI50 (IGROV-1) | GI50 (LOX IMVI) | GI50 (NCI-H226) | GI50 (ACHN) | GI50 (SK-MEL-5) | GI50 (COLO 205) | GI50 (NCI-H460) | GI50 (HOP-62) | GI50 (RXF 393) | GI50 (A549) | GI50 (Malme-3M) | GI50 (UACC-257) | GI50 (HL-60) | GI50 (NCI-H522) | GI50 (SNB-19) | GI50 (CCRF-CEM)
1 | Oc1cc(-c2ccccn2)nc2cc(F)ccc12 | 92.3 µM (inactive) | > 100 µM (inactive) | > 100 µM (inactive) | > 100 µM (inactive) | 71 µM (inactive) | > 100 µM (inactive) | > 100 µM (inactive) | 45.1 µM (inactive) | 74.6 µM (inactive) | 38.7 µM (inactive) | > 100 µM (inactive) | > 100 µM (inactive) | 46 µM (inactive) | 90.2 µM (inactive) | > 100 µM (inactive) | > 100 µM (inactive) | 25.8 µM (inactive) | > 100 µM (inactive) | 
2 | CC(=O)NNc1nc(C)c(C(/C=C/c2ccc(Cl)cc2)=N\NS(=O)(=O)c2ccc(C)cc2)s1 | > 100 µM (inactive) | > 100 µM (inactive) | > 100 µM (inactive) | > 100 µM (inactive) | > 100 µM (inactive) | > 100 µM (inactive) | > 100 µM (inactive) | > 100 µM (inactive) | > 100 µM (inactive) | > 100 µM (inactive) | > 100 µM (inactive) | > 100 µM (inactive) | > 100 µM (inactive) | > 100 µM (inactive) | > 100 µM (inactive) | > 100 µM (inactive) | > 100 µM (inactive) | > 100 µM (inactive) | > 100 µM (inactive)
3 | O=C1C(Cl)C(c2ccccc2Cl)N1n1cnc2ccccc2c1=O (stereo not given) | 35 µM (inactive) | 46.7 µM (inactive) | > 100 µM (inactive) | 80.4 µM (inactive) | 19.6 µM (inactive) | 8.32 µM (inactive) | 76.2 µM (inactive) | > 100 µM (inactive) | > 100 µM (inactive) | > 100 µM (inactive) | 16.3 µM (inactive) | 17.5 µM (inactive) | > 100 µM (inactive) | > 100 µM (inactive) | 37.2 µM (inactive) | 8.69 µM (inactive) | 25.8 µM (inactive) | 22.5 µM (inactive) | 45.8 µM (inactive)
4 | CCOC(=O)C1(C#N)C(c2ccccc2)CC(O)(c2ccc(Cl)cc2)C(C(=O)c2ccc(Cl)cc2)C1c1ccccc1 (stereo not given) | 76.6 µM (inactive) | > 100 µM (inactive) | > 100 µM (inactive) | > 100 µM (inactive) | > 100 µM (inactive) | > 100 µM (inactive) | > 100 µM (inactive) | > 100 µM (inactive) | > 100 µM (inactive) | > 100 µM (inactive) | > 100 µM (inactive) | 37.8 µM (inactive) | > 100 µM (inactive) | > 100 µM (inactive) | > 100 µM (inactive) | > 100 µM (inactive) | 35 µM (inactive) | 34 µM (inactive) | > 100 µM (inactive)
5 | CN(C)CC/C(=N\Nc1ccc(Cl)c(Cl)c1)c1ccccc1 | 2.31 µM (inactive) | 1.98 µM (inactive) | 2.58 µM (inactive) | 2.18 µM (inactive) | 1.69 µM (inactive) |  | 1.69 µM (inactive) | 1.84 µM (inactive) | 1.77 µM (inactive) | 1.85 µM (inactive) | 2.4 µM (inactive) | 2.55 µM (inactive) | 1.96 µM (inactive) | 3.24 µM (inactive) | 3 µM (inactive) | 2.29 µM (inactive) | 2.16 µM (inactive) | 3.49 µM (inactive) | 2.11 µM (inactive)
6 | COc1ccc(N2C(=O)[C@@H]3[C@H](C2=O)c2[nH]c4ccccc4c2C2CCC(C(C)(C)C)C[C@@H]23)cc1 (stereo not given in full) | 22.4 µM (inactive) | 28 µM (inactive) |  | 34.1 µM (inactive) | 22.8 µM (inactive) | 22.3 µM (inactive) | 24.3 µM (inactive) | 41.2 µM (inactive) | 24 µM (inactive) | 25.2 µM (inactive) | 16.5 µM (inactive) | 17.3 µM (inactive) | 24.2 µM (inactive) | 30.4 µM (inactive) | 40.6 µM (inactive) | > 100 µM (inactive) | 18.5 µM (inactive) | 22.1 µM (inactive) | 15.3 µM (inactive)
7 | CC(CN1CCN(CC(C)Nc2ccnc3cc(Cl)ccc23)CC1)Nc1ccnc2cc(Cl)ccc12 (stereo not given) | 9.79 µM (inactive) | 23.9 µM (inactive) | 20.2 µM (inactive) |  | 3.76 µM (inactive) | 28.4 µM (inactive) | 28.8 µM (inactive) | 17.5 µM (inactive) | 14.4 µM (inactive) | 14.7 µM (inactive) | 22.5 µM (inactive) | 13.2 µM (inactive) | 17.8 µM (inactive) | 21.2 µM (inactive) | 19.4 µM (inactive) | 8.93 µM (inactive) | 20.7 µM (inactive) | 29 µM (inactive) | 3.69 µM (inactive)
8 | Cc1ccccc1NC(=O)c1nc(S)nc(N)c1-c1ccccc1C | > 100 µM (inactive) | > 100 µM (inactive) | > 100 µM (inactive) | > 100 µM (inactive) | > 100 µM (inactive) | > 100 µM (inactive) | > 100 µM (inactive) | > 100 µM (inactive) | > 100 µM (inactive) | > 100 µM (inactive) | > 100 µM (inactive) | > 100 µM (inactive) | > 100 µM (inactive) | > 100 µM (inactive) | > 100 µM (inactive) | > 100 µM (inactive) | > 100 µM (inactive) | > 100 µM (inactive) | > 100 µM (inactive)
9 | O=[N+]([O-])c1ccc(C(Cl)C(Cl)c2ccc(C(Cl)C(Cl)c3ccc([N+](=O)[O-])cc3[N+](=O)[O-])cc2)c([N+](=O)[O-])c1 (stereo not given) | 0.8 µM (active) | 5.79 µM (inactive) | 1.52 µM (inactive) | 2.05 µM (inactive) | 1.36 µM (inactive) | 2.29 µM (inactive) | 2.05 µM (inactive) | 0.991 µM (active) | 1 µM (active) | 0.957 µM (active) | 3.01 µM (inactive) | 0.964 µM (active) | 1.63 µM (inactive) | 1.27 µM (inactive) | 1.72 µM (inactive) | 1.93 µM (inactive) | 1.14 µM (inactive) | 0.671 µM (active) | 0.232 µM (active)
10 | COC(=O)CCC(NC(=S)N/N=C(\C)c1nccs1)C(=O)OC (stereo not given) | 3.23 µM (inactive) | > 100 µM (inactive) | 45.8 µM (inactive) | 73.5 µM (inactive) | 52 µM (inactive) | 53.7 µM (inactive) | 47.6 µM (inactive) | 36.4 µM (inactive) | 11.3 µM (inactive) | 53.3 µM (inactive) | 48.8 µM (inactive) | 42.2 µM (inactive) | 74.8 µM (inactive) | > 100 µM (inactive) | > 100 µM (inactive) | 10 µM (inactive) | 26.4 µM (inactive) | > 100 µM (inactive) | 
11 | COC(=O)C1=Cc2c(OC)cc(OC)c(OC)c2[C@H](c2cc(OC)c(OC)cc2OC)C1C(=O)OC (stereo not given in full) | > 100 µM (inactive) | > 100 µM (inactive) | 99.5 µM (inactive) | > 100 µM (inactive) | > 100 µM (inactive) | > 100 µM (inactive) | > 100 µM (inactive) | > 100 µM (inactive) | > 100 µM (inactive) | > 100 µM (inactive) | > 100 µM (inactive) | > 100 µM (inactive) | > 100 µM (inactive) | > 100 µM (inactive) | > 10 µM (inactive) | 28.8 µM (inactive) | > 100 µM (inactive) | > 100 µM (inactive) | 64.7 µM (inactive)
12 | O=[N+]([O-])C1C2C=CC(C2)[C@H]1c1ccc(Cl)cc1Cl (stereo not given in full) | 24.9 µM (inactive) | 69.7 µM (inactive) | > 10 µM (inactive) |  | 29.7 µM (inactive) | 49 µM (inactive) | 33 µM (inactive) | 4.36 µM (inactive) |  | 36.2 µM (inactive) | > 10 µM (inactive) | 20.9 µM (inactive) | 35.2 µM (inactive) | 42.3 µM (inactive) | 31.8 µM (inactive) | 19.3 µM (inactive) | > 10 µM (inactive) | 48.5 µM (inactive) | 39.4 µM (inactive)
13 | COc1cc(CN[C@H]2CCc3cc(OC)c(OC)c(OC)c3-c3ccc(SC)c(=O)cc32)cc(OC)c1 | 0.0324 µM (active) | 0.0807 µM (active) | 0.0731 µM (active) | 0.0403 µM (active) | 0.0465 µM (active) | 0.0318 µM (active) | 0.0439 µM (active) | 0.0336 µM (active) | 0.0325 µM (active) | 0.0361 µM (active) | 0.0562 µM (active) | 0.0266 µM (active) | 0.0376 µM (active) | 0.0575 µM (active) | 0.0566 µM (active) | 0.0394 µM (active) | 0.0245 µM (active) | 0.0681 µM (active) | 
14 | CSc1ccc2c(cc1=O)[C@@H](NC(=O)c1cccc([N+](=O)[O-])c1)CCc1cc(O)c(O)c(O)c1-2 | 28.1 µM (inactive) | > 100 µM (inactive) | 50 µM (inactive) | 46.2 µM (inactive) | 17.5 µM (inactive) | 24.2 µM (inactive) | > 100 µM (inactive) |  | 38.9 µM (inactive) | 54.2 µM (inactive) | > 100 µM (inactive) | 51.2 µM (inactive) | 53.6 µM (inactive) | 81.3 µM (inactive) | 87.9 µM (inactive) | 26.1 µM (inactive) | 12.6 µM (inactive) | > 100 µM (inactive) | 34 µM (inactive)
15 | CC(C)[C@H](CCl)NC(=O)c1cccc(C(=O)N[C@H](CCl)C(C)C)n1 (stereo in doubt) | > 100 µM (inactive) | > 100 µM (inactive) | > 100 µM (inactive) | > 100 µM (inactive) | > 100 µM (inactive) | > 100 µM (inactive) | > 100 µM (inactive) | > 100 µM (inactive) | > 100 µM (inactive) | > 100 µM (inactive) | > 100 µM (inactive) | > 100 µM (inactive) | > 100 µM (inactive) | > 100 µM (inactive) |  | > 100 µM (inactive) | > 100 µM (inactive) | > 100 µM (inactive) | > 100 µM (inactive)
